Series [1] is described as follows: Peptide solubility assay (Zn2+-induced precipitation from NaPB). It counts as physicochemical. Conditions: 15 µM peptide in 10 mM NaPB pH 7.4, 30 min at room temperature (20 °C), centrifuged 20000 x g 10 min, supernatant by NanoDrop A205, triplicate, averaged. How it is done: Aggregation was quantified by measuring peptide precipitation from NaPB. Molar ratios of [0:0], [0:1], [1:2], [1:1], [2:1], [3:1], and [4:1] ZnSO4 to 15 µM peptide were used and samples were incubated for 30 min at room temperature (20 °C) before centrifugation. Samples were spun at 20000× g for 10 min at room temperature and the protein concentrations of the supernatants were subsequently measured using microvolume spectrophotometry (NanoDrop One, Thermofisher Scientific, Waltham, MA, USA) Data were cleaned using robust regression and outlier removal (ROUT) with Q set to 1%. Cleaned data were baseline corrected by subtracting peptide- and metal- free NaPB (0:0). […] Percent aggregation out of total peptide added was calculated. […] Statistical differences between the peptides at each metal salt titration were calculated using two-way ANOVA with Tukey’s multiple comparison test.
Figure 2 The three Hsts are all soluble at a physiological ratio of Zn^2+ to peptide but differ in relative Zn^2+ affinity. […] Peptide solubility was measured via NanoDrop A205 after removal of insoluble aggregates by centrifugation. […] Absorbance of Zincon at 621 nm was measured as an inverse indicator of relative peptide affinity, as Zincon has a blue color when bound to zinc. […]

Series [2] relates to Candida albicans (SC5314). Description: Extracellular ATP quantification (ATP efflux), C. albicans. It counts as cell-based. Conditions: 0.88 fmol/cell; for ATP efflux with added Zn2+: 1:2 ZnSO4:peptide, 10 mM NaPB pH 7.4, words = versus peptide alone; for total ATP efflux: peptide alone, 10 mM NaPB pH 7.4, luminescence. The procedure: (§1) Candida albicans (SC5314) or Candida glabrata (Cg931010) cells were prepared as for peptide uptake assays, with the exception that cells were added to samples at a dosage of 0.88 fmol peptide/cell in a 1:2 ratio of ZnSO4:peptide. After samples were mixed, each was immediately centrifuged for 2 min at 6000× g at room temperature, after which 10 µL supernatant was removed to new tubes and added to 84 µL boiling TE buffer (50 mM Tris pH 7.5, 2 mM EDTA pH 8) (1-min time point). Pelleted cells were resuspended with vortexing. After this, samples were incubated at 30 °C (220 rpm) and removed from incubation for a 10-min time point. Samples in TE buffer were boiled for two more minutes and stored on ice for quantitation. Then, 25µL of each sample were added to 10 µL Staybrite adenosine triphosphate (ATP) assay mix and 65 µL assay buffer (Biovision, Milpitas, CA, USA), and luminescence was immediately measured using a FlexStation 3 plate reader (Molecular Devices, San Jose, CA, USA). Experiments were carried out on at least three separate days. Data were interpolated using a standard curve to determine moles of ATP in each sample. Significant differences between Zn^2+ added and Zn^2+-free samples at each time point were determined using one-way ANOVA and Sidak’s multiple comparisons test.
Figure 5 Zinc induces almost immediate ATP efflux. C. albicans SC5314 bioluminescent ATP efflux assay. Cells were treated at 30 °C with 0.88 fmol/ cell. Hst 5 (red), Hst 5ΔMB (blue), or P113 (green) in 10 mM sodium phosphate buffer pH 7.4 with or without added Zn^2+ at a one to two peptides ratio (hatched). Cells were removed from samples via centrifugation and aliquots of supernatant were taken at 1 min and 10 min time points to measure extracellular ATP by luminescence. Experiments were repeated on at least three separate days and averaged. Significance of differences in ATP efflux calculated using one way ANOVA with Sidak’s multiple comparison test. ** indicates p ≤ 0.01, *** indicates p ≤ 0.001.

For series [3], the system named is Candida glabrata (Cg931010). Put plainly: Extracellular ATP quantification (ATP efflux), C. glabrata. Conditions: 0.88 fmol/cell. It counts as cell-based. How it is done: as §1, with “test. […]” for “test.”
Series [4] in a line: Zinc-binding competition assay with Zincon. Conditions: competition with Zincon 1:1, 20 µM peptide, 10 mM NaPB pH 7.4, ZnSO4 titration, absorbance at 621 nm; triplicate, averaged. How it is done: Binding competition assays were carried out utilizing the colorimetric copper and Zn^2+ binding dye Zincon. Peptides (20 µM) were mixed with Zincon at a 1:1 ratio and titrated with increasing equivalents of ZnSO4. Absorbance at 621 nm was measured at each addition of metal salt using a Lambda 25 UV/Vis spectrophotometer (Perkin Elmer, Waltham, MA, USA). Data were curve fit using a one site competition equation.
Figure 2 The three Hsts are all soluble at a physiological ratio of Zn^2+ to peptide but differ in relative Zn^2+ affinity. (A) Percent solubility of 15 µM Hst 5 (red), Hst 5ΔMB (blue), and P113 (green) in 10 mM sodium phosphate buffer pH 7.4 with increasing ratio of Zn^2+ incubated at room temperature for 30 min. Peptide solubility was measured via NanoDrop A205 after removal of insoluble aggregates by centrifugation. (B) Binding competition assay with Zincon and peptides at 20 µM in 10 mM sodium phosphate buffer pH 7.4 to establish relative affinity of Hst 5 (red), Hst 5ΔMB (blue), and P113 (green) for Zn^2+ at increasing molar ratios. Absorbance of Zincon at 621 nm was measured as an inverse indicator of relative peptide affinity, as Zincon has a blue color when bound to zinc. Experiments were performed in triplicate and averaged.

Where no end group is shown, it is not given here.

On to QQQAKRHHGYKRKFQQQQQSHRGY [Hst 5ΔMB], for which the figures for the precipitation of peptide in series [1] (1:1 Zn2+:peptide) and in series [1] (4:1 Zn2+:peptide) were 14% and 25%, respectively. Further, the “ATP efflux with added Zn2+” value in series [2] (1 min) is listed as “did not significantly increase”; in series [2] (10 min at 30 °C), “did not significantly increase”; in series [3] (10 min, 1:2 Zn2+:peptide, 10 mM NaPB pH 7.4, words = versus 1 min), “over 100 pmol”. For the same sequence, the “total ATP efflux” value in series [2] (1 min, at least three days, averaged) is 85 pmol; in series [2] (10 min at 30 °C), 257 pmol. Besides, the ATP efflux total in series [3] (1 min, peptide alone, 10 mM NaPB pH 7.4, luminescence) was at most 30 pmol. In addition, the “relative affinity for Zn2+” value in series [4] is given as “lowest affinity”.

The record behind these values is article PMC7559477, “Zinc Binding by Histatin 5 Promotes Fungicidal Membrane Disruption in C. albicans and C. glabrata” (Journal of Fungi, 2020).
